In patent publication US20220387602A1, “BIFUNCTIONAL DEGRADERS AND THEIR METHODS OF USE” (NOVARTIS AG, priority 2019, published 2022):
Read-outs that look alike come from different tables or passages of the source.

Experiments:
CRBN = CRBN (Homo sapiens, UniProt Q96SW2); assay: CRBN displacement assay Format 2a (fluorescence polarization, 1536-well, Envision reader); assay type: binding; settings: for CRBN Amax* (% at 50 μM) Format 2a: greatest effect as % displacement of the reference probe at the highest concentration tested (50 μM), given where AC50 >50 μM
Sequence of CRBN (Q96SW2 whole entry): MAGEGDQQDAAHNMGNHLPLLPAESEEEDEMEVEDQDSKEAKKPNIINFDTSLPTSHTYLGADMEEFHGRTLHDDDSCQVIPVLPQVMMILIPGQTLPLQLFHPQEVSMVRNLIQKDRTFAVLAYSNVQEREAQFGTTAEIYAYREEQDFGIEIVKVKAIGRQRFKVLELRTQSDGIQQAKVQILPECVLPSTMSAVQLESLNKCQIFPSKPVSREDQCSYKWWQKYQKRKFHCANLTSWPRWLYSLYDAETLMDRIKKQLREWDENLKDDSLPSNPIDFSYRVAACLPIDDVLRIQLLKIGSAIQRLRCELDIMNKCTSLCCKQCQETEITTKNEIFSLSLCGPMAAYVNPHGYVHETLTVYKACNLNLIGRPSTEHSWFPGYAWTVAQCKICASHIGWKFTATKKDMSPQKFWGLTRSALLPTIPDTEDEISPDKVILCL
Experimental: Compounds were tested in the following biochemical and cellular assays.
BodipyFL conjugated lenalidomide compound HH was used as a fluorescent probe. […] Protein and substrate were diluted in assay buffer.
The fluorescence of the Bodipy FL-based probe was excited at 480 nm and the emissions of the product were measured at 535 nm. The fluorescence in each well was excited by 30 flashes per measurement.
For the determination of AC50 values, assays were performed at room temperature in 1536-well plates with a total assay volume of 6.03 μL per well. The test compounds were dissolved and diluted in 100% DMSO. For the assays, 30 nL of DMSO or compound solution were added per well, followed by the addition of 3 μL protein solution (80 nM protein in 1× assay buffer).
The final assay concentration of the protein was nominally 40 nM. After 45 minutes of pre-incubation at room temperature, the competition for binding was started by the addition of 3 μL probe solution (10 nM probe dissolved in assay buffer). The final concentration of the probe in the assays was 5 nM. After the addition of the probe solution, the final DMSO concentration in the assay was 0.5% (v/v). The effect of the probe on the pre-established compound-protein complex equilibrium was determined after 45 minutes (t=45 min). The AC50 value was calculated from the plot of percentage of protein saturation versus the test compound concentration by a logistics fit according to: y=A^2+(A^1−A^2)/(1+(x/AC50)^p), where y is the %-saturation value at the test compound concentration, x. A^1 is the lowest saturation value, i.e., 0%, and A^2 the maximum saturation value, i.e. 100%. The exponent, p, is the Hill coefficient.

BTK = molecular target: T1, BTK (Homo sapiens, UniProt Q06187); assay: BTK-GFP protein abundance flow cytometry assay in HEK293A; assay type: cell-based; settings: 24 h
T1 construct: the BTK open reading frame (ORF) was first shuttled from a pcDNA-DEST40-BTK vector; expressed in transfected cells; host or cells: HEK293A (Invitrogen R70507), lentiviral transduction, blasticidin selection
T1 sequence (Q06187 whole entry): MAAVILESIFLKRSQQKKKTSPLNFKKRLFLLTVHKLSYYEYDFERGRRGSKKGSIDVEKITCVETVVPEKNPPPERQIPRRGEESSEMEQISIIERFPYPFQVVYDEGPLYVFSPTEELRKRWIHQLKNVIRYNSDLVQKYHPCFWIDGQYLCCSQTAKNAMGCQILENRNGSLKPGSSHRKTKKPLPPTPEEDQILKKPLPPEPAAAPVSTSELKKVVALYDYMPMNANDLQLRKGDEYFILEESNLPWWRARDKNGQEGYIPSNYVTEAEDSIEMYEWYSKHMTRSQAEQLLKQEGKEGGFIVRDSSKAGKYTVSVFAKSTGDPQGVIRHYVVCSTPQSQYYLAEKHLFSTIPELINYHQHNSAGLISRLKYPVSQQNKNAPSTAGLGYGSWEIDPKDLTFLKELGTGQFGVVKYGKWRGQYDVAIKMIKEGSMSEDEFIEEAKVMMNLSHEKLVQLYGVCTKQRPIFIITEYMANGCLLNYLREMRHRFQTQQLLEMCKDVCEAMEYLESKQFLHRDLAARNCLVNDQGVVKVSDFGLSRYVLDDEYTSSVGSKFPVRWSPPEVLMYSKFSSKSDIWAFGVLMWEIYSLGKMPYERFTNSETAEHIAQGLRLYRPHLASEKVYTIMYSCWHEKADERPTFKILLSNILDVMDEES
Experimental: Degradation of BTK, CSK, ABL2, EPHA4 and YES1 was measured in HEK293A cells (Invitrogen R70507) expressing either BTK-GFP and RFP, CSK-GFP and mCherry, GFP-ABL2 and mCherry, EPHA4-GFP and mCherry, or YES1-GFP and mCherry from a stably integrated bicistronic BTK-GFP-iresRFP, CSK-GFP-CHYSEL-mCherry, GFP-ABL2-CHYSEL-mCherry, EPHA4-GFP-CHYSEL-mCherry, or YES1-GFP-CHYSEL-mCherry construct, respectively. Reduction of the GFP signal measured by flow cytometry served as readout for BTK, CSK, ABL2, EPHA4 and YES1 degradation after degrader treatment.
The mix was incubated for another 20 min at RT and then added on 1 mL of a freshly prepared suspension of HEK293FT cells in a well of a 6-well plate (concentration 1.2×10^6 cells/mL). 1 day after transfection, the medium was replaced with 1.5 mL of complete growth medium (DMEM high Glucose+10% FCS+1% L-Glutamine+1% NEAA+1% NaPyr.). 48 h post transfection supernatant containing viral transducing particles was collected and frozen at −80° C.
Infection was performed with 90 μL of collected supernatant containing viral transducing particles in 1 mL medium including 8 µg/mL polybrene. 24 h post infection, stably transfected cells were selected with blasticidin at a concentration of 8 μg/mL referred to as stable HEK293A sensor cells.
Stable HEK293A sensor cells were maintained in complete growth medium (DMEM high Glucose+10% FCS+1% L-Glutamine+1% NEAA+1% NaPyr.) with passaging performed twice per week. On Day 0, stable HEK293A sensor cells were seeded at 10,000 cells/well in a 96-well microtiter plate in 260 μL complete medium. On Day 1, cells were treated in duplicate with 10-point 1:3 dilution series of compound using the HP D300 Digital Dispenser (Tecan). DMSO concentrations were normalized across the plate to 0.1%. On Day 2, after 24 h of incubation at 37° C., treatment media was discarded, cells rinsed with 100 μL/well PBS and then detached using 40 μL trypsin/well for 5 min. Trypsin was neutralized with 100 μL/well PBS+20% FCS). Flow cytometry was performed on the samples using the BD FACS CANTO II (Becton Dickinson). Cell identification was then performed using forward (FSC) vs. side scatter (SSC) plots. Single cell discrimination is performed using SSC-Width (SSC-W) vs. SSC-Height (SSC-H) plots. Median GFP values for 5,000 single cells are used to determine BTK levels. Median GFP values from HEK293 Å-iresRFP are used as a background signal and thus defining 0% BTK signal. Median GFP values from DMSO treated HEK293 Å-BTK-GFP-iresRFP are used to define 100% BTK signal for subsequent DC50 curves (concentration at 50% BTK degradation). GFP and RFP are read in the channels called FITC and PE, respectively.
Concentration response curves plotting relative reduction of the GFP signal (measured by flow cytometry) versus 10 compound concentrations (starting concentration 10 μM, 3 fold dilution steps) of the compounds allowed generation of DC50 values. Protein abundance measured for the second generation vectors having a chysel was done in close analogy to the above described method for measuring BTK abundance.
Table 5 columns are defined as follows: DC50 refers to the concentration at which 50% maximal degradation was observed; deg Amax is the extent of degradation and the value refers to the % protein remaining at the concentration at which maximum degradation is seen.

[1] = concentration at which 50% of reference probe Compound HH is displaced, 40 nM protein, 5 nM probe, read-out: CRBN AC50 [μM] Format 2a

Compound | AC50 (CRBN; [1]) [µM] | AC50 (CRBN) [µM] | other results
1-((4-bromo-1H-pyrazol-5-yl)methyl)dihydropyrimidine-2,4(1H,3H)-dione [ILB-88] | > 50 |  | CRBN Amax* (% at 50 μM) Format 2a (CRBN): 37%
Cc1c(NC(=O)c2ccc(C(C)(C)O)cc2F)cc(F)cc1-c1ncnc2[nH]c(-c3ccc(CN4CCN(CCN5CCC(Oc6ccc(N7CCC(=O)NC7=O)cc6)CC5)CC4)cc3)cc12 [Compound 28, N-(3-(6-(4-((4-(2-(4-(4-(2,4-dioxotetrahydropyrimidin-1(2H)-yl)phenoxy)piperidin-1-yl)ethyl)piperazin-1-yl)methyl)phenyl)-7H-pyrrolo[2,3-d]pyrimidin-4-yl)-5-fluoro-2-methylphenyl)-2-fluoro-4-(2-hydroxypropan-2-yl)benzamide] |  |  | BTK degradation Amax (BTK; % protein remaining at the concentration at which maximum degradation is seen, HEK293A): 40%; DC50 (BTK; concentration at which 50% maximal degradation was observed, HEK293A BTK-GFP sensor cells): 9.2 nM
C[Si](C)(C)CCOCN1C(=O)CCN(Cc2cccc(C=O)c2)C1=O [ILB-10, 3-((2,4-Dioxo-3-((2-(trimethylsilyl)ethoxy)methyl)tetrahydropyrimidin-1(2H)-yl)methyl)benzaldehyde] | > 50 |  | CRBN Amax* (% at 50 μM) Format 2a (CRBN; 45 min): 0%
O=C1CCN(c2ccc(C#CCCCI)cc2)C(=O)N1 [ILB-39, 1-(4-(5-iodopent-1-yn-1-yl)phenyl)dihydropyrimidine-2,4(1H,3H)-dione] | 3.15 |  | 
NCCC#Cc1ccc(N2CCC(=O)NC2=O)cc1 [ILB-44, 1-(4-(4-aminobut-1-yn-1-yl)phenyl)dihydropyrimidine-2,4(1H,3H)-dione] | 5.43 |  | 
O=C1CCN(c2ccc(C#CCN3CCC(n4cc(Br)cn4)CC3)cc2)C(=O)N1 [ILB-49, 1-(4-(3-(4-(4-bromo-1H-pyrazol-1-yl)piperidin-1-yl)prop-1-yn-1-yl)phenyl)dihydropyrimidine-2,4(1H,3H)-dione] | 3.36 |  | 
NCCN1CCC(Oc2ccc(N3CCC(=O)NC3=O)cc2)CC1 [ILB-68, 1-(4-((1-(2-aminoethyl)piperidin-4-yl)oxy)phenyl)dihydropyrimidine-2,4(1H,3H)-dione] | 4.7 |  | 
O=C1CCN(Cc2sccc2Br)C(=O)N1 [ILB-83, 1-((3-bromothiophen-2-yl)methyl)dihydropyrimidine-2,4(1H,3H)-dione] |  | 45.6 | 
O=C1CCN(Cc2cc(C(F)(F)F)[nH]n2)C(=O)N1 [ILB-84, 1-((5-(trifluoromethyl)-1H-pyrazol-3-yl)methyl)dihydropyrimidine-2,4(1H,3H)-dione] |  | 33.3 | 
Cn1cc(Br)c(CN2CCC(=O)NC2=O)n1 [ILB-85, 1-((4-bromo-1-methyl-1H-pyrazol-3-yl)methyl)dihydropyrimidine-2,4(1H,3H)-dione] |  | > 50 | CRBN Amax* (% at 50 μM) Format 2a (CRBN; 45 min): 47%
O=C1CCN(Cc2ccncc2Br)C(=O)N1 [ILB-89, 1-((3-bromopyridin-4-yl)methyl)dihydropyrimidine-2,4(1H,3H)-dione] |  | 16.7 | 
O=C1CCN(Cc2cccn(C3CCN(C(=O)OCc4ccccc4)CC3)c2=O)C(=O)N1 [ILB-94, Benzyl-4-(3-((2,4-dioxotetrahydropyrimidin-1(2H)-yl)methyl)-2-oxopyridin-1(2H)-yl)piperidine-1-carboxylate] |  | 4.95 | 

Continued, in another order:

AC50 (CRBN; [1]) [µM] | AC50 (CRBN) [µM] | Compound | other results
 | > 50 | COc1ccc(C(=O)O)cc1CN1CCC(=O)NC1=O [ILB-9, 3-((2,4-Dioxotetrahydropyrimidin-1(2H)-yl)methyl)-4-methoxybenzoic acid] | CRBN Amax* (% at 50 μM) Format 2a (CRBN; 45 min): 1%
 | 2.42 | Cc1cc(O)ccc1N1CCC(=O)NC1=O [ILB-13, 1-(4-hydroxy-2-methylphenyl)dihydropyrimidine-2,4(1H,3H)-dione] | 
3.41 |  | O=C(O)COc1ccc(Cl)c(N2CCC(=O)NC2=O)c1 [ILB-17, 2-(4-Chloro-3-(2,4-dioxotetrahydropyrimidin-1(2H)-yl)phenoxy)acetic acid] | 
0.69 |  | O=C1CCN(c2cc(C(=O)O)ccc2O)C(=O)N1 [ILB-22, 3-(2,4-Dioxotetrahydropyrimidin-1(2H)-yl)-4-hydroxybenzoic acid] | 
3.44 |  | CCOC(COc1ccc(N2CCC(=O)NC2=O)c(Cl)c1)OCC [ILB-61, 1-(2-chloro-4-(2,2-diethoxyethoxy)phenyl)dihydropyrimidine-2,4(1H,3H)-dione] | 
 | 26.1 | O=C(O)Cn1cc(N2CCC(=O)NC2=O)cn1 [ILB-65, 2-(4-(2,4-Dioxotetrahydropyrimidin-1(2H)-yl)-1H-pyrazol-1-yl)acetic acid] | 
 | > 50 | O=C(O)CCn1cc(N2CCC(=O)NC2=O)cn1 [ILB-66, 3-(4-(2,4-Dioxotetrahydropyrimidin-1(2H)-yl)-1H-pyrazol-1-yl)propanoic acid] | CRBN Amax* (% at 50 μM) Format 2a (CRBN; 45 min): 46%
29.8 |  | CCOC(=O)c1cnc(C)c(N2CCC(=O)NC2=O)c1 [ILB-82, ethyl 5-(2,4-dioxotetrahydropyrimidin-1(2H)-yl)-6-methylnicotinate] | 
 | 5.34 | O=C1CCN(Cc2nc(C(=O)O)cs2)C(=O)N1 [ILB-87, 2-((2,4-dioxotetrahydropyrimidin-1(2H)-yl)methyl)thiazole-4-carboxylic acid] | 
 | > 50 | O=C1CCN(Cc2ncc(Br)cn2)C(=O)N1 [ILB-90, 1-((5-bromopyrimidin-2-yl)methyl)dihydropyrimidine-2,4(1H,3H)-dione] | CRBN Amax* (% at 50 μM) Format 2a (CRBN; 45 min): 40%
 | 5.22 | O=C1CCN(Cc2cc(Cl)ccn2)C(=O)N1 [ILB-91, 1-((4-chloropyridin-2-yl)methyl)dihydropyrimidine-2,4(1H,3H)-dione] | 
 | 1.85 | O=C1CCN(Cc2cc(Br)ccn2)C(=O)N1 [ILB-92, 1-((4-bromopyridin-2-yl)methyl)dihydropyrimidine-2,4(1H,3H)-dione] | 
 | 10.9 | Nc1ncc(Br)cc1CN1CCC(=O)NC1=O [ILB-93, 1-((2-amino-5-bromopyridin-3-yl)methyl)dihydropyrimidine-2,4(1H,3H)-dione] | 
